# From PubChem BioAssay AID686955 (ICCB-Longwood Screening Facility, Harvard Medical School, 2013)
# Calls of active or inactive are those of the source.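 Rule for the calls: active = compounds that shift the dex/IL-1 ratio, either lowering it activators or doubling it inhibitors, at 1 µM (some results past the limit were not filed as active); inactive = the rest.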
# System: NF-kB luciferase reporter cells, IL-1b + dexamethasone, 18 h
# Assay: glucocorticoid sensitivity changers, NF-kB reporter – cell-based, luciferase, IL-1B plus dexamethasone, confirmation (AID 686955)
# Details: 4 uM, dexamethasone conc 1
row,Compound,assay II/I ratio
1,COc1cccc(-n2ncc3c(N/N=C/c4ccc(S(C)(=O)=O)cc4)ncnc32)c1,0.326
2,COc1ccc(O)c(C(=O)c2ccc(C(=O)O[C@H]3CCCNC[C@@H]3NC(=O)c3ccncc3)cc2)c1F,0.85
3,O=C(NC1NNC2NNC(c3cccnc3)CC21)C1CC1 (stereo unspecified),0.597
4,O=C(Nc1n[nH]c2nc(-c3ccc(O)cc3)c(Br)cc12)C1CC1,0.935
5,Cn1cc(C2=C(c3cccc(NCC(O)CO)c3)C(=O)NC2=O)c2cc(Cl)ccc21 (stereo unspecified),0.664
6,Cn1cc(C2=C(c3cccc(OCC(O)CO)c3)C(=O)NC2=O)c2ccccc21 (stereo unspecified),0.553
7,Cn1cc(C2=C(c3ccccc3[N+](=O)[O-])C(=O)NC2=O)c2ccccc21,0.733
8,Cc1[nH]nc2c1N=C(c1ccccc1F)c1cc(C#N)ccc1N2,0.66
9,COc1cccc(-n2ncc3c(N/N=C/c4ccncc4)ncnc32)c1,0.504

# Same assay, conditions: 4 uM, dexamethasone conc 2
row,Compound,assay II/I ratio
1,COc1cccc(-n2ncc3c(N/N=C/c4ccc(S(C)(=O)=O)cc4)ncnc32)c1,0.242
2,COc1ccc(O)c(C(=O)c2ccc(C(=O)O[C@H]3CCCNC[C@@H]3NC(=O)c3ccncc3)cc2)c1F,0.659
3,O=C(NC1NNC2NNC(c3cccnc3)CC21)C1CC1 (stereo unspecified),0.43
4,O=C(Nc1n[nH]c2nc(-c3ccc(O)cc3)c(Br)cc12)C1CC1,0.684
5,Cn1cc(C2=C(c3cccc(NCC(O)CO)c3)C(=O)NC2=O)c2cc(Cl)ccc21 (stereo unspecified),0.47
6,Cn1cc(C2=C(c3cccc(OCC(O)CO)c3)C(=O)NC2=O)c2ccccc21 (stereo unspecified),0.398
7,Cn1cc(C2=C(c3ccccc3[N+](=O)[O-])C(=O)NC2=O)c2ccccc21,0.646
8,Cc1[nH]nc2c1N=C(c1ccccc1F)c1cc(C#N)ccc1N2,0.386
9,COc1cccc(-n2ncc3c(N/N=C/c4ccncc4)ncnc32)c1,0.362

# Same assay, conditions: at 1 µM
row,Compound,normalized assay II/I ratio
1,COc1cccc(-n2ncc3c(N/N=C/c4ccc(S(C)(=O)=O)cc4)ncnc32)c1,1.18 (inactive)
2,COc1ccc(O)c(C(=O)c2ccc(C(=O)O[C@H]3CCCNC[C@@H]3NC(=O)c3ccncc3)cc2)c1F,0.93 (inactive)
3,O=C(NC1NNC2NNC(c3cccnc3)CC21)C1CC1 (stereo unspecified),1.91 (inactive)
4,O=C(Nc1n[nH]c2nc(-c3ccc(O)cc3)c(Br)cc12)C1CC1,2.27
5,Cn1cc(C2=C(c3cccc(NCC(O)CO)c3)C(=O)NC2=O)c2cc(Cl)ccc21 (stereo unspecified),1.93 (inactive)
6,Cn1cc(C2=C(c3cccc(OCC(O)CO)c3)C(=O)NC2=O)c2ccccc21 (stereo unspecified),1.68 (inactive)
7,Cn1cc(C2=C(c3ccccc3[N+](=O)[O-])C(=O)NC2=O)c2ccccc21,2.39
8,Cc1[nH]nc2c1N=C(c1ccccc1F)c1cc(C#N)ccc1N2,1.87 (inactive)
9,COc1cccc(-n2ncc3c(N/N=C/c4ccncc4)ncnc32)c1,1.47 (inactive)

# Same assay, conditions: dexamethasone concentration 2; at 1 µM
row,Compound,normalized assay II/I ratio
1,COc1cccc(-n2ncc3c(N/N=C/c4ccc(S(C)(=O)=O)cc4)ncnc32)c1,1.17
2,COc1ccc(O)c(C(=O)c2ccc(C(=O)O[C@H]3CCCNC[C@@H]3NC(=O)c3ccncc3)cc2)c1F,0.89
3,O=C(NC1NNC2NNC(c3cccnc3)CC21)C1CC1 (stereo unspecified),1.94
4,O=C(Nc1n[nH]c2nc(-c3ccc(O)cc3)c(Br)cc12)C1CC1,2.53
5,Cn1cc(C2=C(c3cccc(NCC(O)CO)c3)C(=O)NC2=O)c2cc(Cl)ccc21 (stereo unspecified),1.97
6,Cn1cc(C2=C(c3cccc(OCC(O)CO)c3)C(=O)NC2=O)c2ccccc21 (stereo unspecified),1.68
7,Cn1cc(C2=C(c3ccccc3[N+](=O)[O-])C(=O)NC2=O)c2ccccc21,2.62
8,Cc1[nH]nc2c1N=C(c1ccccc1F)c1cc(C#N)ccc1N2,2.07
9,COc1cccc(-n2ncc3c(N/N=C/c4ccncc4)ncnc32)c1,1.44
